Experimental findings from PubChem BioAssay AID1159564 (GlaxoSmithKline (GSK), 2015) are described below.

The subject of the assay is L. donovani-infected THP-1 macrophages, intracellular amastigote imaging. The assay can be described thus: intracellular L. donovani amastigote inhibition, imaging, THP-1 host macrophages, host toxicity (AID 1159564).
[1] abbreviates: measured here: THP-1 host cell toxicity.
The mark [2] stands for this setting: measured here: amastigotes per macrophage.

The structures appear in SMILES notation. Activity calls are given as the source filed them. How the calls were made is not given here.

Take `COc1ccc2ncc(=O)n(CCN3CC[C@H](NCc4ncc(Cl)c5[nH]ncc45)[C@H](O)C3)c2n1`: the IC50 is > 50 µM (inactive). This compound came in with a half-inhibitory concentration (IC50) under setting [1] of over 50 µM. The compound further registered an IC50 under setting [2] of over 50 µM.

On to `N#Cc1c(Oc2cccc(Cl)c2)cccc1[N+](=O)[O-]`, for which the IC50 was 10 µM. The IC50 under setting [1] was over 50 µM. The compound further registered a concentration for half-maximal inhibition (IC50) under setting [2] of 7.9 µM.

`COc1ccc(Cc2nc(-c3ncc4cccnc4c3O)n[nH]2)cc1OC`: the half-inhibitory concentration (IC50) was 3.2 µM. In addition, under setting [1], the concentration for half-maximal inhibition (IC50) worked out at 20 µM. This compound showed a 50% inhibitory concentration (IC50) under setting [2] of 2.5 µM.

Turning to `CC(C)(C)CC(=O)NCCc1csc(-c2ccc(F)cc2)n1`, the IC50 is 32 µM. Moreover, the 50% inhibitory concentration (IC50) under setting [1] came out at 16 µM. Further, the IC50 under setting [2] turned out to be 16 µM.

For the compound `Cc1cc(NC(=O)C2CC2)ccc1OC1CCN(Cc2ccco2)CC1`, the IC50 was 20 µM. The compound also gave a 50% inhibitory concentration (IC50) under setting [1] of 13 µM. Besides, under setting [2], the concentration for half-maximal inhibition (IC50) is 13 µM.

`NCc1ccc2c(Cl)cc(Cl)c(O)c2n1`: the 50% inhibitory concentration (IC50) is 2 µM. The IC50 under setting [1] amounted to 20 µM. Further, the IC50 under setting [2] turned out to be 2 µM.

As to `COc1cccc(NS(=O)(=O)c2ccc3[nH]cc(C(=O)NCCC(C)C)c(=O)c3c2)c1`, the IC50 is > 50 µM (inactive). The compound also gave a half-maximal inhibitory concentration (IC50) under setting [1] of over 50 µM. Further, the IC50 under setting [2] was over 50 µM.

As for `O=c1[nH]c(C=Cc2cccc(OCCOc3ccccc3)c2)nc(O)c1[N+](=O)[O-]`, the IC50 is > 50 µM (inactive). The compound also registered an IC50 under setting [1] of over 50 µM. The compound further registered an IC50 under setting [2] of over 50 µM.

On to `Cc1nc2c(-c3cccs3)c(C)nn2c(NCCO)c1C`, for which the IC50 is > 50 µM (inactive). Besides, the IC50 under setting [1] is over 50 µM. The compound also registered a 50% inhibitory concentration (IC50) under setting [2] of over 50 µM.

`COc1ccc(Nc2nc(NC3CCC(O)CC3)ncc2Br)c(C(N)=O)c1` (centres undefined): the IC50 was 1 µM. This compound showed an IC50 under setting [1] of 0.4 µM. In addition, the IC50 under setting [2] came out at 0.63 µM.

Consider `c1ccc2c(CCOc3nccnc3-c3ccncc3)c[nH]c2c1`, for which the IC50 was > 50 µM (inactive). The IC50 under setting [1] is 20 µM. The 50% inhibitory concentration (IC50) under setting [2] is 20 µM.

As to `CC1=NN(C(=O)CCn2cnc([N+](=O)[O-])n2)C(O)(C(F)(F)F)C1` (centres undefined), the IC50 was > 50 µM (inactive). Besides, the half-maximal inhibitory concentration (IC50) under setting [1] is over 50 µM. The compound also gave an IC50 under setting [2] of over 50 µM.

In the case of `c1ccc(Nc2nc(-c3ccccn3)cc(N3CCOCC3)n2)cc1`, the IC50 was 2 µM. Besides, the IC50 under setting [1] is over 50 µM. Under setting [2], this compound yielded an IC50 of 1.3 µM.

Turning to `Cc1cc(Oc2cc(Cl)c(Cl)cc2Cl)n2ncnc2n1`, the IC50 is 16 µM. For the same compound, under setting [1], the IC50 amounted to 10 µM. This compound also came in with an IC50 under setting [2] of 13 µM.

In the case of `CCCCNc1nccc(-c2c(-c3ccc(F)cc3)nn3c(N4CCOCC4)cccc23)n1`, the 50% inhibitory concentration (IC50) is 6.3 µM. Under setting [1], this compound returned an IC50 of 13 µM. The compound further had an IC50 under setting [2] of over 50 µM.

Turning to `CC(C)N(C(=O)CN1C(=O)C(N)C(=O)N(c2ccccc2)c2ccccc21)c1ccccc1` (centres undefined), the IC50 was > 50 µM (inactive). The compound further had an IC50 under setting [1] of over 50 µM. The concentration for half-maximal inhibition (IC50) under setting [2] is over 50 µM.

With `COc1ccc(C2C3CCCCC3(O)CCN2CC(=O)Nc2ccc(Cl)cc2Cl)cc1` (centres undefined), the IC50 is 2.5 µM. Further, the IC50 under setting [1] is over 50 µM. This compound also had a 50% inhibitory concentration (IC50) under setting [2] of 0.79 µM.

With `Cc1cc2nc(CN(C)Cc3ncccc3C)[nH]c2cc1C`, the IC50 is 0.63 µM. Under setting [1], this compound gave an IC50 of 7.9 µM. Also, under setting [2], the IC50 was 0.5 µM.

On to `Cc1ccccc1CNc1cc(C2CC2)nc(-c2nccn2C)n1`, for which the half-inhibitory concentration (IC50) was 0.63 µM. Under setting [1], this compound came in with an IC50 of 10 µM. For the same compound, the 50% inhibitory concentration (IC50) under setting [2] came out at 0.63 µM.

For the compound `O=C(CSc1ccc(-c2ccccn2)nn1)Nc1ccc(Cl)cc1`, the IC50 is > 50 µM (inactive). Under setting [1], this compound displayed an IC50 of over 50 µM. The compound also returned an IC50 under setting [2] of over 50 µM.

For the compound `O=C(CN(Cc1ccccn1)Cc1ccccn1)NCc1csc(-c2cccs2)n1`, the IC50 is 6.3 µM. Under setting [1], the IC50 was over 50 µM. Under setting [2], this compound showed a half-maximal inhibitory concentration (IC50) of 3.2 µM.

For the compound `O=C1CN(Cc2ccco2)C2CS(=O)(=O)CC2N1c1ccc(Cl)cc1` (centres undefined), the IC50 is > 50 µM (inactive). The compound also displayed an IC50 under setting [1] of over 50 µM. Besides, the IC50 under setting [2] was over 50 µM.

Take `OCC1CCCCN1c1cc(-c2ccccn2)nc(Nc2ccccc2)n1` (centres undefined): the IC50 was 1.3 µM. The compound further gave a concentration for half-maximal inhibition (IC50) under setting [1] of 20 µM. The compound also gave an IC50 under setting [2] of 1 µM.

For the compound `N#Cc1cc(-c2ccnc(Nc3cccc(CN4CCOCC4)c3)n2)ccc1NCCN`, the IC50 was 1.6 µM. Moreover, the concentration for half-maximal inhibition (IC50) under setting [1] was found to be 7.9 µM. Moreover, the half-inhibitory concentration (IC50) under setting [2] is 0.79 µM.

Consider `COc1ccc(C2CC(c3ccccc3Cl)=NN2C(=O)CNC(=O)C2CCCC2)cc1` (centres undefined), for which the IC50 was > 50 µM (inactive). Besides, the concentration for half-maximal inhibition (IC50) under setting [1] was over 50 µM. Under setting [2], this compound returned an IC50 of over 50 µM.

Take `Cc1c(C(C)NC(=O)Nc2cccc(Cl)c2)sc2ncnn12` (centres undefined): the IC50 was > 50 µM (inactive). The compound also showed an IC50 under setting [1] of over 50 µM. Moreover, under setting [2], the concentration for half-maximal inhibition (IC50) is 2 µM.

Turning to `Cc1cc(N(C)C)nc2ccc(Cc3cnc(N)nc3N)cc12`, the IC50 is 32 µM. Moreover, under setting [1], the IC50 was found to be 40 µM. Also, the half-inhibitory concentration (IC50) under setting [2] stood at 40 µM.

In the case of `Cc1ccc(NC(=O)C(C)n2nc([N+](=O)[O-])c(Br)c2C)cc1Cl` (centres undefined), the IC50 was > 50 µM (inactive). Besides, the IC50 under setting [1] was over 50 µM. This compound also had an IC50 under setting [2] of over 50 µM.

For `CCS(=O)(=O)c1cccc(C(=O)Nc2nc(-c3ccccn3)cs2)c1`, the 50% inhibitory concentration (IC50) is 4 µM. The same compound had an IC50 under setting [1] of 20 µM. The IC50 under setting [2] was 3.2 µM.

As to `c1ccc(-c2nc(NC3CCCCC3)cc(C3CC3)n2)nc1`, the IC50 is 4 µM. Further, under setting [1], the IC50 stood at 20 µM. The concentration for half-maximal inhibition (IC50) under setting [2] was 3.2 µM.

On to `COc1cnc2ccc(=O)n(CCN3CCC(NC/C=C/c4cc(F)ccc4F)CC3)c2c1`, for which the IC50 is 5 µM. Also, under setting [1], the 50% inhibitory concentration (IC50) turned out to be 40 µM. The same compound registered a 50% inhibitory concentration (IC50) under setting [2] of 2 µM.

Regarding `COc1ccc(NS(=O)(=O)c2ccc(S(=O)(=O)N(C)C3CCCCC3)cc2)c2ncccc12`, the IC50 is 0.32 µM. Under setting [1], this compound registered an IC50 of over 50 µM. Also, the half-inhibitory concentration (IC50) under setting [2] was 0.16 µM.

On to `COc1ccc(-c2nc3ccncc3c(=O)n2CCOc2ccccc2)cc1`, for which the IC50 is > 50 µM (inactive). The compound further displayed an IC50 under setting [1] of over 50 µM. The compound also displayed an IC50 under setting [2] of over 50 µM.

As for `O=C(c1cccc(Cl)c1Cl)N1CCn2c1nc(-c1ccncc1)cc2=O`, the IC50 was > 50 µM (inactive). Under setting [1], this compound yielded an IC50 of over 50 µM. Also, under setting [2], the IC50 worked out at 32 µM.

In the case of `O=[N+]([O-])c1ccc(-c2nnn(-c3ccc(Cl)cc3)n2)o1`, the IC50 is > 50 µM (inactive). The IC50 under setting [1] is over 50 µM. This compound came in with a half-inhibitory concentration (IC50) under setting [2] of over 50 µM.

As to `CCNc1cc(-c2ccccn2)nc(Nc2ccccc2)n1`, the IC50 is 0.79 µM. This compound returned a concentration for half-maximal inhibition (IC50) under setting [1] of 20 µM. Under setting [2], the IC50 stood at 0.63 µM.

As for `O=C1CN(C(=O)c2cccc(Nc3ncc(-c4ccc5c(c4)OCO5)cn3)c2)CCN1`, the IC50 was 5 µM. The compound also had a half-inhibitory concentration (IC50) under setting [1] of 63 µM. The IC50 under setting [2] is 2 µM.

Turning to `CC(C)(C)Nc1nc(-c2ccccn2)nc2ccccc12`, the IC50 is 1.6 µM. The same compound came in with a half-maximal inhibitory concentration (IC50) under setting [1] of 16 µM. Also, the IC50 under setting [2] was found to be 1.3 µM.
